Experimental findings from the Deep4Chem optical property database are described below.

The nature of this series: solvent given as SMILES.

`COc1ccc(/C=C/c2ccc(/C=C/c3cc[n+]4ccc(/C=C/c5ccc(/C=C/c6ccc(OC)cc6)cc5)cc4c3)cc2)cc1` had an emission maximum (in CO) of 620 nm.
As for `c1ccc2c(c1)Cc1ccccc1N2c1c2ccccc2cc2ccccc12`, the emission maximum (in Cc1ccccc1) is 535 nm.
Under “in Cc1ccccc1”, `Cc1ccc(-n2c(-c3cccc4cc[nH]c34)nc3c4ccccc4c4ccccc4c32)cc1` displayed an emission maximum of 377 nm.
In the case of `CC(C)(C)c1ccc2c(c1)c1cc(C(C)(C)C)ccc1n2-c1ccc(C(=CC#N)c2ccc(-n3c4ccc(C(C)(C)C)cc4c4cc(C(C)(C)C)ccc43)cc2)cc1`, under “in Cc1ccccc1”, the emission maximum was found to be 450 nm.
The compound `N#CC(C#N)=C(/C=C/c1cn(-c2ccccc2)nc1-c1ccccc1)c1ccccc1` showed an emission maximum (in C1CCOC1) of 459 nm; an emission maximum (in C1COCCO1) of 461 nm; an emission maximum (in CCO) of 497 nm; an emission maximum (in CCOC(C)=O) of 487 nm; an emission maximum (in CN(C)C=O) of 504 nm; an emission maximum (in CO) of 496 nm. The emission maximum reads like this: (in CS(C)=O) 509 nm; (in Cc1ccccc1) 460 nm; (in ClC(Cl)Cl) 488 nm; (in ClCCl) 489 nm.
With `CCCCC(CC)CN1C(=O)c2cccc3c(C#Cc4ccc(N(c5ccccc5)c5ccccc5)cc4)ccc(c23)C1=O` (stereo not drawn), the emission maximum is, setting by setting: (in C1CCCCC1) 462 nm; (in C1CCOC1) 621 nm; (in CC#N) 547 nm; (in Cc1ccccc1) 512 nm; (in ClC(Cl)Cl) 582 nm.
`COc1ccc(N(c2ccc(OC)cc2)c2ccc(-c3ccc(-c4ccc(-c5cccs5)c5nsnc45)s3)cc2)cc1` gave an emission maximum (in ClC(Cl)Cl) of 705 nm.
The compound `CC(C)[Si](C#Cc1ccc(C#C[Si](C(C)C)(C(C)C)C(C)C)c2nc3c(nc12)Cc1ccccc1-3)(C(C)C)C(C)C` showed an emission maximum (in CCCCCC) of 430 nm.
Turning to `F[B-]1(F)n2c(cc(Br)c2Br)C(c2ccccc2)=C2C=C(Br)C(c3ccc[nH]3)=[N+]21`, the emission maximum (in ClC(Cl)Cl) came out at 642 nm.
Under “in CS(C)=O”, `O=C(O)CCCOc1cccc(-c2c3nc(cc4ccc([nH]4)c(-c4cccc(OCCCC(=O)O)c4)c4nc(cc5ccc2[nH]5)CC4)C=C3)c1` showed an emission maximum of 649 nm.
For `CCCCc1cc(-c2cccc(COC)c2)oc1-c1cccc(-c2cc(CCCC)c(-c3cccc(-c4cc(CCCC)c(-c5cccc(-c6oc(-c7cccc(-c8oc(-c9cccc(-c%10oc(-c%11cccc(COC)c%11)cc%10CCCC)c9)cc8CCCC)c7)cc6CCCC)c5)o4)c3)o2)c1`, the emission maximum (in ClC(Cl)Cl) is given as 374 nm.
For the setting “in ClCCl”, `CCCCCCN1C(=O)c2cccc3c(-c4ccc(-c5cc(-c6ccc(C)cc6)n(-c6ccccc6)n5)s4)ccc(c23)C1=O` displayed an emission maximum of 521 nm.
Take `Cc1cccc(Nc2ccccc2C(=O)O)c1C`: the emission maximum is, setting by setting: (in C1CCCCC1) 438 nm; (in C1CCOC1) 438 nm; (in C1COCCO1) 437 nm; (in CC#N) 398 nm; (in CCOC(C)=O) 439 nm; (in CN(C)C=O) 385 nm. The emission maximum amounted to 390 nm (in CO) and 442 nm (in ClC(Cl)Cl).
Under “in CS(C)=O”, `COc1ccc(NC(=O)C(C(=O)Nc2ccc(OC)cc2)C(c2cc(F)ccc2O)c2c[nH]c3ccc(OC)cc23)cc1` (stereo not drawn) displayed an emission maximum of 341 nm.
`Cc1cc(=O)[nH]c(=O)[nH]1` had an emission maximum (in CC#N) of 308 nm.
`O=Cc1ccc(-c2ccc(O)c(-c3nc4ccccc4s3)c2)o1` returned an emission maximum (in CCO) of 550 nm, an emission maximum (in ClCCl) of 553 nm and an emission maximum (in O) of 564 nm.
Compound `CC(C)[Si](C#Cc1c2ccccc2c(C#C[Si](C(C)C)(C(C)C)C(C)C)c2nc3c(nc12)C1c2ccccc2C3c2ccccc21)(C(C)C)C(C)C` had an emission maximum (in CCCCCC) of 464 nm.
`CC(C)[Si](C#Cc1ccc(C#C[Si](C(C)C)(C(C)C)C(C)C)c2nc3cc4c(cc3nc12)[C@H]1c2ccccc2[C@@H]4c2ccccc21)(C(C)C)C(C)C` displayed an emission maximum (in CCCCCC) of 455 nm and an emission maximum (in ClCCl) of 473 nm.
As to `CCCCOc1ccc2cc(-c3ccc(C)cc3)c(=O)oc2c1`, the emission maximum by setting is: (in C1CCOC1) 423 nm; (in CCCCCC) 416 nm; (in CCO) 429 nm; (in CS(C)=O) 431 nm.
Compound `c1ccc2c(c1)oc1nc3oc4ccc(-n5c6ccccc6c6ccccc65)cc4c3cc12` gave an emission maximum (in ClC(Cl)Cl) of 448 nm.
As to `CCOC(=O)c1sc2nc3c(c(C#N)c2c1N)CCCC3`, the emission maximum (in c1ccccc1) was determined as 545 nm.
Take `Cc1cc(-c2ccc(-c3n(C)c4ccccc4[n+]3C)cc2)ccc1-c1ccc(-c2n(C)c3ccccc3[n+]2C)cc1`: the emission maximum (in O) is 399 nm.
`c1ccc2c(-c3cc4c(ccc5sc(-c6cccc7ccccc67)cc54)s3)cccc2c1` came in with an emission maximum (in ClCCl) of 423 nm.
For the compound `N#Cc1nc(-c2ccc(N3c4ccccc4Oc4ccccc43)cc2)c(-c2ccc(N3c4ccccc4Oc4ccccc43)cc2)nc1C#N`, the emission maximum (in c1cc(-c2cccc(-n3c4ccccc4c4ccccc43)c2)cc(-n2c3ccccc3c3ccccc32)c1) is 610 nm.
In turn, `CN1CCN(c2ccc3c4c(cccc24)C(=O)c2ccccc2-3)CC1` registered an emission maximum (in C1CCCCC1) of 533 nm; an emission maximum (in C1CCOC1) of 593 nm; an emission maximum (in C1COCCO1) of 584 nm; an emission maximum (in CC1COC(=O)O1) of 619 nm; an emission maximum (in CC#N) of 619 nm; an emission maximum (in CC(C)=O) of 615 nm. Further, the emission maximum (in CCCCCCCCO) turned out to be 626 nm; the emission maximum (in CCCCCO) was 635 nm; the emission maximum (in CCCCO) is recorded as 632 nm; the emission maximum (in CCCO) stood at 637 nm; the emission maximum (in CCO) is on record as 640 nm; the emission maximum (in CCOC(C)=O) is 595 nm. The emission maximum is 621 nm (in CN(C)C=O); 645 nm (in CO); 624 nm (in CS(C)=O); 569 nm (in Cc1ccccc1); 601 nm (in ClC(Cl)Cl).
For the setting “in C1COCCO1”, `COC(=O)c1ccc(/C=C2\C=C(c3ccc(C#N)cc3)N(CC(C)C)C2=O)cc1` had an emission maximum of 589 nm.
Under “in CC#N”, `Cc1cc(C)c2c(c1)nc1c(=O)n(C)c(=O)nc-1n2C` came in with an emission maximum of 552 nm.
As to `Oc1cccc(/N=C/c2ccccc2Oc2ccccc2)c1`, the emission maximum came out at 402 nm (in C1CCCCC1); 406 nm (in C1COCCO1); 395 nm (in CC#N); 415 nm (in CC(C)=O); 387 nm (in CC(C)CO); 406 nm (in CC(C)O). Moreover, the emission maximum is, setting by setting: (in CCCCC) 403 nm; (in CCCCCCCCO) 410 nm; (in CCCCCCCO) 410 nm; (in CCCCCCO) 400 nm; (in CCCCO) 416 nm; (in CCCCOC(C)=O) 404 nm. In addition, the emission maximum came out at 395 nm (in CCCO); 420 nm (in CCOC(C)=O); 404 nm (in CCOCC); 380 nm (in CO); 396 nm (in CS(C)=O); 412 nm (in Cc1ccccc1). In addition, the emission maximum runs as follows: (in Cc1ccccc1C) 403 nm; (in ClC(Cl)Cl) 415 nm; (in ClCCl) 407 nm; (in N#Cc1ccccc1) 385 nm; (in OCCO) 418 nm; (in c1ccccc1) 414 nm.
